# Assay results as given in publication PMC5149029, “New Aspects of Silibinin Stereoisomers and their 3-O-galloyl Derivatives on Cytotoxicity and Ceramide Metabolism in Hep G2 hepatocarcinoma Cell Line” (Iranian Journal of Pharmaceutical Research : IJPR, 2016).
# Marks after values point to notes of the source that are not given here.
# Tests used:
# [1] = target: T1, glucosyl ceramide synthase (GCS) (Homo sapiens, UniProt Q16739); assay: GCS activity assay (C6-NBD-ceramide, HPLC); format: cell-based; details: for GCS activity, effect of treatment: Hep G2, 0-200 µM
# T1 construct: endogenous in cells; host or cells: Hep G2
# T1 sequence (Q16739 1-394): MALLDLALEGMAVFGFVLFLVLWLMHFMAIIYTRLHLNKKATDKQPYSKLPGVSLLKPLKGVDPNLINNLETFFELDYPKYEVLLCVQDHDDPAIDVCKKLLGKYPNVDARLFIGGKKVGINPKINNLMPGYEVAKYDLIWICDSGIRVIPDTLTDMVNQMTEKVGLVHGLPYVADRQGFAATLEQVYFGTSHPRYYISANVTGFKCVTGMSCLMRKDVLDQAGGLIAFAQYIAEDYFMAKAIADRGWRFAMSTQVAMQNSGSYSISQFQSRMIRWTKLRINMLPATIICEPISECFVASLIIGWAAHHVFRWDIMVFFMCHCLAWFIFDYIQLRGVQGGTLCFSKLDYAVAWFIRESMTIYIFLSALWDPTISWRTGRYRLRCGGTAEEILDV
# Experimental: (§1) The cell line was grown in RPMI-1640 medium supplemented with L-glutamine 2 mM, HEPESNa 25 mM, penicillin 100 U/mL, streptomycin 100 μg/mL and 10% […] (FBS) at 37 °C in a humidified atmosphere containing 5% CO2. Hep G2 cells were seeded at 1 × 10^6 cells/mL and sub cultured every 2–3 days after 60–80% confluence was reached. To prepare the lysates cells attached to the culture plate were scraped off with a cell scraper and collected in a 1.5 mL tube by centrifugation. The cell pellets were rinsed with PBS, suspended in sterile water, and then lysed by sonication. For each experiment, the cells were treated separately with increasing concentrations of silibinin derivatives (0, 25, 50, 75, 100, 125, 150, 175 and 200 μM) and incubated for 48 h.
# To determine GCS activities, the fluorescent acceptor substrate C6-4-nitrobenzo-2-oxa-1,3-diazole (NBD)-ceramide and a normal-phase HPLC were used. Acceptor substrate, 50 pM of C6-NBD-Cer and 6.5 nM of lecithin were mixed in 100 µL of ethanol and then the solvent was evaporated. Next, 10 µL of water was added and the mixture was sonicated to form liposomes. For the GCS assay, 50 µL of reaction mixture contains 500 µM UDP-Glc, 1mM EDTA, 10 µL of C6-NBD-Cer liposome and 20 µL of an appropriate amount of enzyme in lysis buffer. Addition of conduritol B epoxide (CBE) at 2.5 mM is effective at inhibiting the glycosidase activity. Standard assays were carried out at 37 °C for 1 h. The reaction was stopped by adding 200 µL of chloroform/methanol (2:1, v/v). After a few seconds of vortexing, 5 µL of 500 µM KCl was added and then centrifuged. After the organic phase had dried up, lipids were dissolved in 200 µL of isopropyl alcohol/n-hexane/H2O (55:44:1) and then transferred to a glass vial in auto sampler. A 100 µL aliquot of sample was automatically loaded onto a normal-phase column (Intersil SIL 150A-5, 4.6 x 250 mm, GL Sciences, Japan) and eluted with isopropyl alcohol/n-hexane/H2O (55:44:1) at a flow rate of 2.0 mL/min. Fluorescence was determined using a fluorescent detector (Hitachi L-7480) set to excitation and emission wavelengths of 470 and 530 nm, respectively. The fluorescent peaks were identified by comparing their retention times with those of standards ([37]).
# Hep G2 cells = assay: Cell viability, MTT colorimetric assay; format: cell-based; details: Hep G2, 48 h
# Experimental: The cell line was grown in RPMI-1640 medium supplemented with L-glutamine 2 mM, HEPESNa 25 mM, penicillin 100 U/mL, streptomycin 100 μg/mL and 10% phosphate-buffered saline (FBS) at 37 °C in a humidified atmosphere containing 5% CO2. Hep G2 cells were seeded at 1 × 10^6 cells/mL and sub cultured every 2–3 days after 60–80% confluence was reached. […] For each experiment, the cells were treated separately with increasing concentrations of silibinin derivatives (0, 25, 50, 75, 100, 125, 150, 175 and 200 μM) and incubated for 48 h.
# To measure cell viability, the 3-(4,5-dimethylthiazol-2-yl)-2,5-diphenyl tetrazolium bromide (MTT) colorimetric assay was performed as published ([32], [33]). Briefly, Hep G2 cells were seeded onto 96 flat bottom well plates (50 × 10^3 cells/well) and grown overnight. After the incubation period with silibinin isomers, cells were washed twice with phosphate-buffered saline solution and incubated with MTT solution at a final concentration of 0.5 mg/mL for 3 h and then lysed in dimethyl sulfoxide. Optical density was measured at 540 nm and the background absorbance measured at 660 nm was subtracted. Each experiment was replicated separately for three times.
# [2] = test system: Neutral sphingomyelinase (NSMase); assay: NSMase activity assay (Amplex Red kit); format: cell-based, human; details: for NSMase activity in comparison with control: Hep G2, 125 µM and higher concentrations
# Experimental: as §1
# Amplex™ Red NSMase Assay Kit (AAT Bioquest®, Inc. product no: 13620) was used to determine NSMases activity. The kit uses Amplite™ Red as a colorimetric probe to indirectly quantify the phosphocholine produced from the hydrolysis of sphingomyelin by NSMase.
# Cells were washed with ice cold PBS and homogenized in neutral lysis buffer (20 mM Tris–HCl pH 7.4, 2 mM EDTA, 5 mM EGTA, 1 mM PMSF, 1% protein cocktail inhibitor and 1 mM sodium orthovanadate) for NSMase assays. Samples were kept on ice 15 min and centrifuged at 14,000 × g for 20 min at 4 °C. 100 µL of each supernatant fraction were incubated at 37 °C for 1hour with working solution. The fluorescence count of produced resorophine in the previous step was measured with a fluorescence micro plate reader by using excitation at 540 nm and emission at 590 nm ([36]).
Structure (SMILES),"GCS activity, effect of treatment [1]",Cell viability (% of control) (Hep G2 cells; 25 micro molar),Cell viability (% of control) (Hep G2 cells; 50 micro molar),Cell viability (% of control) (Hep G2 cells; 75 micro molar),Cell viability (% of control) (Hep G2 cells; 100 micro molar),Cell viability (% of control) (Hep G2 cells; 125 micro molar),Cell viability (% of control) (Hep G2 cells; 150 micro molar),Cell viability (% of control) (Hep G2 cells; 175 micro molar),Cell viability (% of control) (Hep G2 cells; 200 micro molar),NSMase activity in comparison with control [2],"GCS activity (% of control) ([1]; Hep G2, 200 µM)","NSMase activity with respect to control ([2]; Hep G2, all concentrations (0-200 µM))"
"COc1cc([C@H]2Oc3cc([C@H]4Oc5cc(O)cc(O)c5C(=O)[C@@H]4OC(=O)c4cc(O)c(O)c(O)c4)ccc3O[C@@H]2CO)ccc1O [SGA, 3-O-galloyl silybin A]",did not indicate any significant changes,96 + 10.5 % of control,84 + 9.3^* % of control,73 + 10.7^* % of control,63 + 8.9^* % of control,52 + 8.1^* % of control,44 + 6.0^* % of control,38 + 5.7^* % of control,33 + 5.1^* % of control,considerable increase,,
"COc1cc([C@@H]2Oc3cc([C@H]4Oc5cc(O)cc(O)c5C(=O)[C@@H]4O)ccc3O[C@H]2CO)ccc1O [SB, silybin B]",dose dependent inhibition,94 + 10.3 % of control,89 + 10.5 % of control,81 + 10.7^* % of control,70 + 10.0^* % of control,60 + 7.9^* % of control,51 + 7.6^* % of control,45 + 5.1^* % of control,40 + 6.0^* % of control,considerable increase,,
"COc1cc([C@H]2Oc3cc([C@H]4Oc5cc(O)cc(O)c5C(=O)[C@@H]4O)ccc3O[C@@H]2CO)ccc1O [SA, silybin A]",dose dependent inhibition,97 + 10.0 % of control,95 + 10.3 % of control,89 + 11.4 % of control,83 + 9.5 % of control,71 + 8.3^* % of control,63 + 7.4^* % of control,52 + 6.0^* % of control,47 + 5.5^* % of control,considerable increase,,
"COc1cc([C@@H]2Oc3cc([C@H]4Oc5cc(O)cc(O)c5C(=O)[C@@H]4OC(=O)c4cc(O)c(O)c(O)c4)ccc3O[C@H]2CO)ccc1O [SGB, 3-O-galloyl silybin B]",dose dependent inhibition,91 + 10.0 % of control,78 + 9.5^* % of control,65 + 8.6^* % of control,56 + 7.7^* % of control,49 + 6.9^* % of control,35 + 5.1^* % of control,29 + 4.3^* % of control,,,18 % of control,did not exert any significant change
